Source: patent US7700782B2, “Compounds 569” (AstraZeneca AB, priority 2007, dated 2010)
Counter-ions that a name gives are not always drawn.

The molecules below were run against T1, Adrenergic β2 (Homo sapiens, UniProt P07550) (assay: Adrenergic β2 mediated cAMP production in H292 cells (AlphaScreen cAMP detection)). Conditions: Intrinsic Activity, fraction relative to the maximum activity determined for formoterol.
T1 construct: Adherent H292 cells were removed from tissue culture flasks; endogenous in cells; host or cells: H292 cells
T1 sequence (P07550 whole entry): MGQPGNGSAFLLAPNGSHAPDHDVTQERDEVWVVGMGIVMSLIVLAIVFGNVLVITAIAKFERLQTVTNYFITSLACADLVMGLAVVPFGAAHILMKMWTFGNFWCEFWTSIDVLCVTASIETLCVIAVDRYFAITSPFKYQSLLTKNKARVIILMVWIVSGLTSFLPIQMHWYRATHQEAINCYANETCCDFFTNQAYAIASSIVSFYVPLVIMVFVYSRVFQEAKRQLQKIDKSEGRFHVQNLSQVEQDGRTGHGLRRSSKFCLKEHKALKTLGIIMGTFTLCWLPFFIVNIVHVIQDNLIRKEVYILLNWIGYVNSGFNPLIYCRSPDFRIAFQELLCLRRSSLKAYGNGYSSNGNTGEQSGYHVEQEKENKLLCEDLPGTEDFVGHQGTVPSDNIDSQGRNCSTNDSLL
Type: cell-based
Outline: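 H292 cells, 5000/well, preincubated 10 min with rolipram (final 300 μM, 1.6% DMSO) in HEPES pH 7.4 HBSS, then compound 60 min at room temperature. Lysate cAMP quantified by AlphaScreen against a cAMP standard curve. pEC50 and intrinsic activity (fraction of formoterol maximum) from four-parameter logistic fits.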

β2 Int Act | SMILES
0.72 | O=C(CCNCCc1ccc(O)c2[nH]c(=O)sc12)N(CCNCCc1ccc(O)c2[nH]c(=O)sc12)C1CCCCCC1 [Example 87, N^1-Cycloheptyl-N^3-[2-(4-hydroxy-2-oxo-2,3-dihydro-1,3-benzothiazol-7-yl)ethyl]-N^1-(2-{[2-(4-hydroxy-2-oxo-2,3-dihydro-1,3-benzothiazol-7-yl)ethyl]amino}ethyl)-β-alaninamide bis-trifluoroacetic acid salt]
0.37 | O=C(CCNCCc1ccc2c(c1)OCCO2)N(CCNCCc1ccc(O)c2[nH]c(=O)sc12)C1CCCCCC1 [Example 88, N^1-Cycloheptyl-N^3-[2-(2,3-dihydro-1,4-benzodioxin-6-yl)ethyl]-N^1-(2-{[2-(4-hydroxy-2-oxo-2,3-dihydro-1,3-benzothiazol-7-yl)ethyl]amino}ethyl)-β-alaninamide bis-trifluoroacetic acid salt]
0.9 | O=C(CCNCCc1ccc(O)c(Cl)c1)N(CCNCCc1ccc(O)c2[nH]c(=O)sc12)C1CCCCC1 [Example 89, N^3-[2-(3-chloro-4-hydroxyphenyl)ethyl]-N^1-cyclohexyl-N^1-(2-{[2-(4-hydroxy-2-oxo-2,3-dihydro-1,3-benzothiazol-7-yl)ethyl]amino}ethyl)-β-alaninamide bis-trifluoroacetic acid salt]
0.71 | O=C(CCNCCc1cccc(O)c1)N(CCNCCc1ccc(O)c2[nH]c(=O)sc12)C1CCCCCCC1 [Example 90, N^1-Cyclooctyl-N^1-(2-{[2-(4-hydroxy-2-oxo-2,3-dihydro-1,3-benzothiazol-7-yl)ethyl]amino}ethyl)-N^3-[2-(3-hydroxyphenyl)ethyl]-β-alaninamide bis-trifluoroacetic acid salt]
0.75 | CC1(C)CCC(N(CCNCCc2ccc(O)c3[nH]c(=O)sc23)C(=O)CCNCCc2cccc(O)c2)CC1 [Example 91, N^1-(4,4-Dimethylcyclohexyl)-N^1-(2-{[2-(4-hydroxy-2-oxo-2,3-dihydro-1,3-benzothiazol-7-yl)ethyl]amino}ethyl)-N^3-[2-(3-hydroxyphenyl)ethyl]-β-alaninamide bis-trifluoroacetic acid salt]
0.81 | O=C(NCc1ccccc1)c1ccc(CCNCCC(=O)N(CCNCCc2ccc(O)c3[nH]c(=O)sc23)C2CCCCCC2)cc1 [Example 100, N-Benzyl-4-[2-({3-[cycloheptyl(2-{[2-(4-hydroxy-2-oxo-2,3-dihydro-1,3-benzothiazol-7-yl)ethyl]amino}ethyl)amino]-3-oxopropyl}amino)ethyl]benzamide bis-trifluoroacetic acid salt]
0.98 | CCCC[C@@H](C)N(CCNCCc1ccc(O)c2[nH]c(=O)sc12)C(=O)CCNCCc1ccccc1 [Example 101, N-(2-{[2-(4-Hydroxy-2-oxo-2,3-dihydro-1,3-benzothiazol-7-yl)ethyl]amino}ethyl)-N-[(1R)-1-methylpentyl]-N^3-(2-phenylethyl)-β-alaninamide bis-trifluoroacetic acid salt]
0.23 | CCCC[C@H](C)N(CCNCCc1ccc(O)c2[nH]c(=O)sc12)C(=O)CCNCCc1ccccc1 [Example 102, N-(2-{[2-(4-Hydroxy-2-oxo-2,3-dihydro-1,3-benzothiazol-7-yl)ethyl]amino}ethyl)-N-[(1S)-1-methylpentyl]-N^3-(2-phenylethyl)-β-alaninamide bis-trifluoroacetic acid salt]
0.81 | CC(CN(C(=O)CCNCCc1cccc(F)c1)C1CCCCCC1)NCCc1ccc(O)c2[nH]c(=O)sc12 (stereo not drawn) [Example 104, N-Cycloheptyl-N^3-[2-(3-fluorophenyl)ethyl]-N-(2-{[2-(4-hydroxy-2-oxo-2,3-dihydro-1,3-benzothiazol-7-yl)ethyl]amino}propyl)-β-alaninamide bis-trifluoroacetic acid salt]
0.86 | CC(CN(C(=O)CCNCCc1ccccc1)C1CCCCC1)NCCc1ccc(O)c2[nH]c(=O)sc12 (stereo not drawn) [Example 105, N-Cyclohexyl-N-(2-{[2-(4-hydroxy-2-oxo-2,3-dihydro-1,3-benzothiazol-7-yl)ethyl]amino}propyl)-N^3-(2-phenylethyl)-β-alaninamide bis-trifluoroacetic acid salt]

SMILES | β2 Int Act
O=C(CCNCCc1cccc(F)c1)N(CCNCCc1ccc(O)c2[nH]c(=O)sc12)C1CCCCC1 [Example 96, N-Cyclohexyl-N^3-[2-(3-fluorophenyl)ethyl]-N-(2-{[2-(4-hydroxy-2-oxo-2,3-dihydro-1,3-benzothiazol-7-yl)ethyl]amino}ethyl)-β-alaninamide dihydrobromide salt] | 0.85

Same assay, conditions: Intrinsic Activity, fraction relative to the maximum activity determined for formoterol, dihydrobromide salt

SMILES | β2 Int Act
O=C(CCNCCc1ccccc1)N(CCNCCc1ccc(O)c2[nH]c(=O)sc12)C1CCCCCC1 [Example 98, N-Cycloheptyl-N-(2-{[2-(4-hydroxy-2-oxo-2,3-dihydro-1,3-benzothiazol-7-yl)ethyl]amino}ethyl)-N^3-(2-phenylethyl)-β-alaninamide dihydrobromide salt] | 0.8
